The values that follow come from ChEMBL document CHEMBL1134833, “Convergent synthesis of potent peptide inhibitors of the Grb2-SH2 domain by palladium catalyzed coupling of a terminal alkyne” (Bioorg Med Chem Lett, 2001).

Growth factor receptor-bound protein 2, sequence (P62993 whole entry): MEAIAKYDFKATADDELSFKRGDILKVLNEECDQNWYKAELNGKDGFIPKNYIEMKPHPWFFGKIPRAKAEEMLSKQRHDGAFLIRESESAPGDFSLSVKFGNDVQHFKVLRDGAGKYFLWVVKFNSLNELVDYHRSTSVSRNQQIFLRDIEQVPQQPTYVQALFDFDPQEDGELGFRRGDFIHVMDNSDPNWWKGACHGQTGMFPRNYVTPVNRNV

This test addresses Growth factor receptor-bound protein 2 (Homo sapiens, UniProt P62993). Briefly: Inhibitory concentration required against Src homology (SH2) domain of Growth factor receptor bound protein 2 by ELISA binding assay. (In an ELISA, binding on a coated surface is turned into a signal by an enzyme label.)
For `COc1cc2cccc(CCCNC(=O)[C@H](CC(N)=O)NC(=O)C3(NC(=O)[C@H](Cc4ccc(CP(=O)(O)O)cc4)NC(C)=O)CCCCC3)c2cc1OC`, the half-inhibitory concentration (IC50) worked out at 84.4 nM.
For the molecule `CC(=O)N[C@@H](Cc1ccc(CP(=O)(O)O)cc1)C(=O)NC1(C(=O)N[C@@H](CC(N)=O)C(=O)NCCCc2ccc3cccc(O)c3c2)CCCCC1`, the IC50 is 11.1 nM.
Molecule `CC(=O)N[C@@H](Cc1ccc(CP(=O)(O)O)cc1)C(=O)NC1(C(=O)N[C@@H](CC(N)=O)C(=O)NCCCc2cccc3ccccc23)CCCCC1` displayed an IC50 of 42.9 nM.
As to `CC(=O)N[C@@H](Cc1ccc(CP(=O)(O)O)cc1)C(=O)NC1(C(=O)N[C@@H](CC(N)=O)C(=O)NCCCc2cccc3ccc(O)cc23)CCCCC1`, the IC50 is 24.6 nM.
For the molecule `CC(=O)N[C@@H](Cc1ccc(CP(=O)(O)O)cc1)C(=O)NC1(C(=O)N[C@@H](CC(N)=O)C(=O)NCCCc2cccc3cc(O)ccc23)CCCCC1`, the IC50 turned out to be 42.7 nM.
`COc1ccc2c(CCCNC(=O)[C@H](CC(N)=O)NC(=O)C3(NC(=O)[C@H](Cc4ccc(CP(=O)(O)O)cc4)NC(C)=O)CCCCC3)cccc2c1` had an IC50 of 130 nM.
Regarding `CC(=O)N[C@@H](Cc1ccc(CP(=O)(O)O)cc1)C(=O)NC1(C(=O)N[C@@H](CC(N)=O)C(=O)NCCCc2c(O)ccc3ccccc23)CCCCC1` [CGP-78850], the half-maximal inhibitory concentration (IC50) is 43 nM. This IC50 lies about 3-fold lower than the previous one.

As a reminder, the IC50 is the point on the concentration scale where inhibition reaches its midpoint. Higher therefore signals a need for much substance.
